# Reference: ChEMBL document CHEMBL1131309, “Isoindol-1-one analogues of 4-(2'-methoxyphenyl)-1-[2'-[N-(2"-pyridyl)-p-iodobenzamido]ethyl]pipera zine (p-MPPI) as 5-HT1A receptor ligands” (J Med Chem, 1998)
# Legend:
# [1] = molecular target: T1, 5-hydroxytryptamine receptor 1A (Rattus norvegicus, UniProt P19327)
# T1 sequence (P19327 whole entry): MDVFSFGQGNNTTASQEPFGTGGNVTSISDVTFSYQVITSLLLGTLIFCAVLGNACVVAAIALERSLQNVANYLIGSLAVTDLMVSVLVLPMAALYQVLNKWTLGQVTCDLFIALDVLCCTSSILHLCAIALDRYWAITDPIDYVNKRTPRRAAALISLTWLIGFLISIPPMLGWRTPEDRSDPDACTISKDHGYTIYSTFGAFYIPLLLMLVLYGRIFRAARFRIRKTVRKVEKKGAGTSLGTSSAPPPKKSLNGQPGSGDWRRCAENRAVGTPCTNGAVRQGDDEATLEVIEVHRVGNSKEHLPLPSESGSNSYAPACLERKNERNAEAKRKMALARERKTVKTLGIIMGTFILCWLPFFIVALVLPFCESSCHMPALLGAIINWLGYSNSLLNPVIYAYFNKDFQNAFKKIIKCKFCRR
# Description: (§1) In vitro binding affinity for 5-hydroxytryptamine 1A receptor in rat hippocampal membranes by [125I]-labeled agonist displacement.
# [2] = tested on: Rattus norvegicus; experiment: Biodistribution was measured in rat cerebellum by injecting the radiolabeled compound intravenously and the value measured after 30 min; type: ADME, organism-based; details: in vivo, iv, 0.5 h
# [3] = tested on: Rattus norvegicus; experiment: Biodistribution was measured in blood of rat by injecting the radiolabeled compound intravenously and the value measured after 2 min; type: ADME, organism-based; details: in vivo, iv
# [4] = tested on: Rattus norvegicus; experiment: Biodistribution was measured in rat brain by injecting the radiolabeled compound intravenously and the value measured after 2 min; type: ADME, organism-based; details: in vivo, iv
# [5] = tested on: Rattus norvegicus; experiment: Biodistribution was measured in rat kidney by injecting the radiolabeled compound intravenously and the value measured after 60 min; type: ADME, organism-based; details: in vivo, iv, 1 h
# [6] = tested on: Rattus norvegicus; experiment: Biodistribution was measured in rat skin by injecting the radiolabeled compound intravenously and the value measured after 60 min; type: ADME, organism-based, Zone of skin; details: in vivo, iv, 1 h
# [7] = tested on: Rattus norvegicus; experiment: Biodistribution was measured in rat heart by injecting the radiolabeled compound intravenously and the value measured after 30 min; type: ADME, organism-based; details: in vivo, iv, 0.5 h
# [8] = tested on: Rattus norvegicus; experiment: Biodistribution was measured in rat spleen by injecting the radiolabeled compound intravenously and the value measured after 2 min; type: ADME, organism-based; details: in vivo, iv
# [9] = tested on: Rattus norvegicus; experiment: Biodistribution was measured in rat muscle by injecting the radiolabeled compound intravenously and the value measured after 30 min; type: ADME, organism-based, Muscle tissue; details: in vivo, iv, 0.5 h
# [10] = tested on: Rattus norvegicus; experiment: Biodistribution was measured in rat spleen by injecting the radiolabeled compound intravenously and the value measured after 30 min; type: ADME, organism-based; details: in vivo, iv, 0.5 h
# [11] = tested on: Rattus norvegicus; experiment: Biodistribution was measured in rat heart by injecting the radiolabeled compound intravenously and the value measured after 2 min; type: ADME, organism-based; details: in vivo, iv
# [12] = tested on: Rattus norvegicus; experiment: Biodistribution was measured in rat muscle by injecting the radiolabeled compound intravenously and the value measured after 60 min; type: ADME, organism-based, Muscle tissue; details: in vivo, iv, 1 h
# [13] = molecular target: T1, 5-hydroxytryptamine receptor 1A; remark: listed apart in the source
# Description: as §1
# [14] = tested on: Rattus norvegicus; experiment: Biodistribution was measured in rat skin by injecting the radiolabeled compound intravenously and the value measured after 30 min; type: ADME, organism-based, Zone of skin; details: in vivo, iv, 0.5 h
# [15] = tested on: Rattus norvegicus; experiment: Biodistribution was measured in rat striatum by injecting the radiolabeled compound intravenously and the value measured after 60 min; type: ADME, organism-based; details: in vivo, iv, 1 h
# [16] = tested on: Rattus norvegicus; experiment: Biodistribution was measured in rat cerebellum by injecting the radiolabeled compound intravenously and the value measured after 2 min; type: ADME, organism-based; details: in vivo, iv
# [17] = tested on: Rattus norvegicus; experiment: Biodistribution was measured in rat brain by injecting the radiolabeled compound intravenously and the value measured after 60 min; type: ADME, organism-based; details: in vivo, iv, 1 h
# [18] = tested on: Rattus norvegicus; experiment: Biodistribution was measured in rat liver by injecting the radiolabeled compound intravenously and the value measured after 30 min; type: ADME, organism-based; details: in vivo, iv, 0.5 h
# [19] = tested on: Rattus norvegicus; experiment: Biodistribution was measured in rat hippocampus by injecting the radiolabeled compound intravenously and the value measured after 30 min; type: ADME, organism-based; details: in vivo, iv, 0.5 h
# [20] = tested on: Rattus norvegicus; experiment: Biodistribution was measured in blood of rat by injecting the radiolabeled compound intravenously and the value measured after 60 min; type: ADME, organism-based; details: in vivo, iv, 1 h
# [21] = tested on: Rattus norvegicus; experiment: Biodistribution was measured in rat lung by injecting the radiolabeled compound intravenously and the value measured after 2 min; type: ADME, organism-based; details: in vivo, iv
# [22] = tested on: Rattus norvegicus; experiment: Biodistribution was measured in rat kidney by injecting the radiolabeled compound intravenously and the value measured after 30 min; type: ADME, organism-based; details: in vivo, iv, 0.5 h
# [23] = tested on: Rattus norvegicus; experiment: Biodistribution was measured in rat lung by injecting the radiolabeled compound intravenously and the value measured after 60 min; type: ADME, organism-based; details: in vivo, iv, 1 h
# [24] = tested on: Rattus norvegicus; experiment: Biodistribution was measured in rat cortex by injecting the radiolabeled compound intravenously and the value measured after 30 min; type: ADME, organism-based; details: in vivo, iv, 0.5 h
# [25] = tested on: Rattus norvegicus; experiment: Biodistribution was measured in rat cortex by injecting the radiolabeled compound intravenously and the value measured after 60 min; type: ADME, organism-based; details: in vivo, iv, 1 h
# [26] = tested on: Rattus norvegicus; experiment: Biodistribution was measured in rat lung by injecting the radiolabeled compound intravenously and the value measured after 30 min; type: ADME, organism-based; details: in vivo, iv, 0.5 h
# [27] = tested on: Rattus norvegicus; experiment: Biodistribution was measured in rat spleen by injecting the radiolabeled compound intravenously and the value measured after 60 min; type: ADME, organism-based; details: in vivo, iv, 1 h
# [28] = tested on: Rattus norvegicus; experiment: Biodistribution was measured in rat kidney by injecting the radiolabeled compound intravenously and the value measured after 2 min; type: ADME, organism-based; details: in vivo, iv
# [29] = Biodistribution was measured in hippocampus region(HP/CB) by injecting the radiolabeled compound intravenously and the value measured after 60 min; type: ADME, organism-based; details: in vivo, iv, 1 h
# [30] = tested on: Rattus norvegicus; experiment: Biodistribution was measured in rat liver by injecting the radiolabeled compound intravenously and the value measured after 60 min; type: ADME, organism-based; details: in vivo, iv, 1 h
# [31] = tested on: Rattus norvegicus; experiment: Biodistribution was measured in rat hippocampus by injecting the radiolabeled compound intravenously and the value measured after 2 min; type: ADME, organism-based; details: in vivo, iv
# [32] = tested on: Rattus norvegicus; experiment: Biodistribution was measured in rat liver by injecting the radiolabeled compound intravenously and the value measured after 2 min; type: ADME, organism-based; details: in vivo, iv
# [33] = tested on: Rattus norvegicus; experiment: Biodistribution was measured in rat brain by injecting the radiolabeled compound intravenously and the value measured after 30 min; type: ADME, organism-based; details: in vivo, iv, 0.5 h
# [34] = tested on: Rattus norvegicus; experiment: Biodistribution was measured in rat thyroid by injecting the radiolabeled compound intravenously and the value measured after 60 min; type: ADME, organism-based, Thyroid gland; details: in vivo, iv, 1 h
# [35] = tested on: Rattus norvegicus; experiment: Biodistribution was measured in rat thyroid by injecting the radiolabeled compound intravenously and the value measured after 2 min; type: ADME, organism-based, Thyroid gland; details: in vivo, iv
# [36] = tested on: Rattus norvegicus; experiment: Biodistribution was measured in rat hippocampus by injecting the radiolabeled compound intravenously and the value measured after 60 min; type: ADME, organism-based; details: in vivo, iv, 1 h
# [37] = tested on: Rattus norvegicus; experiment: Biodistribution was measured in rat cortex by injecting the radiolabeled compound intravenously and the value measured after 2 min; type: ADME, organism-based; details: in vivo, iv
# [38] = tested on: Rattus norvegicus; experiment: Biodistribution was measured in rat muscle by injecting the radiolabeled compound intravenously and the value measured after 2 min; type: ADME, organism-based, Muscle tissue; details: in vivo, iv
# [39] = Biodistribution was measured in hippocampus region(HP/CB) by injecting the radiolabeled compound intravenously and the value measured after 2 min; type: ADME, organism-based; details: in vivo, iv
# [40] = tested on: Rattus norvegicus; experiment: Biodistribution was measured in rat cerebellum by injecting the radiolabeled compound intravenously and the value measured after 60 min; type: ADME, organism-based; details: in vivo, iv, 1 h
# [41] = tested on: Rattus norvegicus; experiment: Biodistribution was measured in blood of rat by injecting the radiolabeled compound intravenously and the value measured after 30 min; type: ADME, organism-based; details: in vivo, iv, 0.5 h
# [42] = tested on: Rattus norvegicus; experiment: Biodistribution was measured in rat striatum by injecting the radiolabeled compound intravenously and the value measured after 2 min; type: ADME, organism-based; details: in vivo, iv
# [43] = tested on: Rattus norvegicus; experiment: Biodistribution was measured in rat heart by injecting the radiolabeled compound intravenously and the value measured after 60 min; type: ADME, organism-based; details: in vivo, iv, 1 h
# [44] = Biodistribution was measured in hippocampus region(HP/CB) by injecting the radiolabeled compound intravenously and the value measured after 30 min; type: ADME, organism-based; details: in vivo, iv, 0.5 h
# [45] = tested on: Rattus norvegicus; experiment: Biodistribution was measured in rat striatum by injecting the radiolabeled compound intravenously and the value measured after 30 min; type: ADME, organism-based; details: in vivo, iv, 0.5 h
# [46] = tested on: Rattus norvegicus; experiment: Biodistribution was measured in rat thyroid by injecting the radiolabeled compound intravenously and the value measured after 30 min; type: ADME, organism-based, Thyroid gland; details: in vivo, iv, 0.5 h
smiles,measurement,setting,value
COc1ccccc1N1CCN(CCN2C(=O)c3cc([N+](=O)[O-])ccc3C2(O)c2ccccc2)CC1 (configuration not stated),Ki,[1],0.34 nM
COc1ccc([N+](=O)[O-])cc1N1CCN(CCN2C(=O)c3cc(I)ccc3C2c2ccccc2)CC1 (configuration not stated),Ki,[1],51.7 nM
COc1ccccc1N1CCN(CCN2C(=O)c3ccccc3C2c2ccccc2)CC1 (configuration not stated),Ki,[1],0.5 nM
COc1ccccc1N1CCN(CCN2C(=O)c3cc(I)ccc3C2(O)c2ccccc2)CC1 (configuration not stated),Ki,[1],0.65 nM
COc1ccccc1N1CCN(CCN2C(=O)CCC2c2ccc(Br)cc2)CC1 (configuration not stated),Ki,[1],1.09 nM
COc1ccccc1N1CCN(CCN2C(=O)c3cc(I)ccc3C2c2ccccc2)CC1 (configuration not stated),Biodistribution,[2],0.08 % dose organ-1
same,Biodistribution,[3],2.84 % dose organ-1
same,Biodistribution,[4],0.26 % dose organ-1
same,Biodistribution,[5],1.42 % dose organ-1
same,Biodistribution,[6],4.96 % dose organ-1
same,Biodistribution,[7],0.3 % dose organ-1
same,Biodistribution,[8],0.26 % dose organ-1
same,Biodistribution,[9],14.35 % dose organ-1
same,Ki,[1],0.069 nM
same,Biodistribution,[10],0.22 % dose organ-1
same,Biodistribution,[11],1.42 % dose organ-1
same,Biodistribution,[12],8.83 % dose organ-1
same,Ki,[13],0.069 nM
same,Biodistribution,[14],5.8 % dose organ-1
same,Biodistribution,[15],0.035 % dose organ-1
same,Biodistribution,[16],0.202 % dose organ-1
same,Biodistribution,[17],0.04 % dose organ-1
same,Biodistribution,[18],18.65 % dose organ-1
same,Biodistribution,[19],0.09 % dose organ-1
same,Biodistribution,[20],1.22 % dose organ-1
same,Biodistribution,[21],2.05 % dose organ-1
same,Biodistribution,[22],2.32 % dose organ-1
same,Biodistribution,[23],0.56 % dose organ-1
same,Biodistribution,[24],0.081 % dose organ-1
same,Biodistribution,[25],0.028 % dose organ-1
same,Biodistribution,[26],0.7 % dose organ-1
same,Biodistribution,[27],0.15 % dose organ-1
same,Biodistribution,[28],4.01 % dose organ-1
same,Biodistribution,[29],1.06 % dose organ-1
same,Biodistribution,[30],10.76 % dose organ-1
same,Biodistribution,[31],0.177 % dose organ-1
same,Biodistribution,[32],21.36 % dose organ-1
same,Biodistribution,[33],0.11 % dose organ-1
same,Biodistribution,[34],0.06 % dose organ-1
same,Biodistribution,[35],0.073 % dose organ-1
same,Biodistribution,[36],0.037 % dose organ-1
same,Biodistribution,[37],0.242 % dose organ-1
same,Biodistribution,[38],9.45 % dose organ-1
same,Biodistribution,[39],0.87 % dose organ-1
same,Biodistribution,[40],0.035 % dose organ-1
same,Biodistribution,[41],1.92 % dose organ-1
same,Biodistribution,[42],0.204 % dose organ-1
same,Biodistribution,[43],0.15 % dose organ-1
same,Biodistribution,[44],1.12 % dose organ-1
same,Biodistribution,[45],0.093 % dose organ-1
same,Biodistribution,[46],0.05 % dose organ-1
COc1ccccc1N1CCN(CCn2c(=O)c3ccccc3c3ccccc32)CC1,Ki,[1],8.9 nM
